Source: patent US11639346B2, “Quinazoline derivatives as modulators of mutant KRAS, HRAS or NRAS” (Araxes Pharma LLC, priority 2017, dated 2023)

Target: T1, KRAS G12C 1-169, his-tagged protein, GDP-loaded (Homo sapiens, UniProt P01116, G12C)
T1 construct: KRAS G12C 1-169, his-tagged protein, GDP-loaded; His tag
Assay: Biochemical assay: covalent modification of KRAS G12C measured by mass spectrometry
Format: binding
Settings: after a 10 minute incubation period
Procedure: Test compounds are prepared as 10 mM stock solutions in DMSO (Fisher cat #BP-231-100). KRAS G12C 1-169, his-tagged protein, GDP-loaded is diluted to 2 μM or 0.5 μM in buffer (20 mM Hepes, 150 mM NaCl, 1 mM MgCl2). Compounds are tested for activity as follows:
Compounds are diluted to 50× final test concentration in DMSO in 96-well storage plates. Compound stock solutions are vortexed before use and observed carefully for any sign of precipitation. […] The plate is then resealed with aluminum seal and stored on dry ice until analyzed as described below.
The above described assays are analyzed by mass spectrometry according to one of the following two procedures: […]
After another 30 minute equilibration time, a blank batch (i.e., buffer) is run to ensure equipment is operating properly. […] The method is then run and masses of each individual well recorded. […]
The masses and peak intensities of KRAS G12C protein species are measured using a Dionex RSLCnano system (Thermo Scientific) connected to a Q Exactive Plus mass spectrometer (Thermo Scientific). […]
The mass spectrometer is operated in profile mode at a resolution of 17500, 5 microscans, using 50 msec max injection time and an AGC target of 1×10^6, and a full mass range from 800-1850 m/z is recorded. […]

T1 sequence (P01116 1-169 isoform P01116-2 G12C): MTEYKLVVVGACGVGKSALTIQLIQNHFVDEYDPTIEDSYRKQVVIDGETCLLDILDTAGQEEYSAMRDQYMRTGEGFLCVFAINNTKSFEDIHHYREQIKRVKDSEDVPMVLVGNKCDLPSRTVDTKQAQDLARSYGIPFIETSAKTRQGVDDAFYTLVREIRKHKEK

Question: With `C=CC(=O)N1C[C@H](C)N(c2nc(C3CN(C(C)C)C3)nc3c(F)c(-c4c(O)cccc4F)c(Cl)cc23)C[C@H]1C` (atropisomer, axis not shown) [Compound 1, 1-((2R,5S)-4-((S)-6-chloro-8-fluoro-7-(2-fluoro-6-hydroxyphenyl)-2-(1-isopropylazetidin-3-yl)quinazolin-4-yl)-2,5-dimethylpiperazin-1-yl)prop-2-en-1-one] as the compound, how does the “binding to KRAS G12C (modification percentage)” value read?
Answer: The value was “greater than 75%”.
